This passage reports melting point results from patent publication US6511997B1, “Aminopyrazole derivatives” (Teikoku Hormone Mfg. Co., Ltd., priority 1998, dated 2003).

The structures appear in SMILES notation.

Turning to `CCn1nc(-c2ccc(F)cc2)c(-c2ccncc2)c1NC(=O)Cc1ccccc1` [Example 97, 1-Ethyl-3-(4-fluorophenyl)-5-phenylacetylamino-4-(4-pyridyl)pyrazole], the melting point (usually the temperature, or range, at which the solid turns liquid) was in the range of 219 to 221.2 °C.
In the case of `O=C(CO)Nc1n[nH]c(-c2ccc(F)cc2)c1-c1ccncc1` [Example 14, 5-(4-Fluorophenyl)-3-hydroxyacetylamino-4-(4-pyridyl)pyrazole], the melting point lay within 264 to 266 °C.
`Cn1nc(-c2ccc3c(c2)OCO3)c(-c2ccncc2)c1NC(=O)Cc1ccccc1` [Example 109, 1-methyl-3-(3,4-methylenedioxyphenyl)-5-phenylacetylamino-4-(4-pyridyl)pyrazole]: the melting point is 127.5 to 132.1 °C.
`Cn1nc(-c2ccc(F)cc2)c(-c2ccncc2)c1NC(=O)Cc1cc(F)cc(F)c1` [Example 48, 5-(3,5-Difluorophenylacetylamino)-3-(4-fluorophenyl)-1-methyl-4-(4-pyridyl)pyrazole] had a melting point of 208.5 to 210.2 °C.
For the compound `COc1ccc(CC(=O)Nc2c(-c3ccncc3)c(-c3ccc(F)cc3)nn2C)cc1OC` [Example 42, 5-(3,4-Dimethoxyphenylacetylamino)-3-(4-fluorophenyl)-1-methyl-4-(4-pyridyl)pyrazole], the melting point was 128.1 to 129.6 °C.
The result for `CCC(=O)Nc1n[nH]c(-c2ccc(F)cc2)c1-c1ccncc1` [Example 17, 5-(4-Fluorophenyl)-3-propionylamino-4-(4-pyridyl)pyrazole] reads 272 to 275 °C; that for `Cn1nc(-c2ccc(F)cc2)c(-c2ccncc2)c1NC(=O)C(F)c1ccccc1` (stereo not drawn) [Example 74, 3-(4-Fluorophenyl)-5-(α-fluorophenylacetylamino)-1-methyl-4-(4-pyridyl)pyrazole], 92.1 to 96.1 °C.
The result for `Cn1nc(-c2ccc(F)cc2)c(-c2ccncc2)c1NC(=O)Nc1ccccc1` [Example 136, 3-(4-fluorophenyl)-1-methyl-5-(phenylaminocarbonylamino)-4-(4-pyridyl)pyrazole] reads 287.5 to 290.2 °C; that for `C[C@H](NC(=O)OC(C)(C)C)C(=O)Nc1n[nH]c(-c2ccc(F)cc2)c1-c1ccncc1` [Example 86, 3-(N′-Carbo-t-butoxy-L-alanylamino)-5-(4-fluorophenyl)-4-(4-pyridyl)pyrazole], 223 to 224.7 °C.
Compound `Cn1nc(-c2ccc(F)cc2)c(-c2ccncc2)c1NC(=O)Cc1ccccc1[N+](=O)[O-]` [Example 65, 3-(4-Fluorophenyl)-1-methyl-5-(2-nitrophenylacetylamino)-4-(4-pyridyl)pyrazole] showed a melting point of 240.9 to 242.4 °C.
The compound `Cn1nc(NC(=O)Cc2ccccc2Cl)c(-c2ccncc2)c1-c1ccc(F)cc1` [Example 118, 3-(2-Chlorophenylacetylamino)-5-(4-fluorophenyl)-1-methyl-4-(4-pyridyl)pyrazole] returned a melting point of 193.8 to 195.3 °C.
With `Cn1nc(-c2ccc(F)cc2)c(-c2ccncc2)c1NC(=O)Cc1c(F)cccc1F` [Example 46, 5-(2,6-Difluorophenylacetylamino)-3-(4-fluorophenyl)-1-methyl-4-(4-pyridyl)pyrazole], the melting point is 239.9 to 242.5 °C.
For the compound `O=C(Cc1ccccc1[N+](=O)[O-])Nc1n[nH]c(-c2ccc(F)cc2)c1-c1ccncc1` [Example 92, 5-(4-fluorophenyl)-3-(2-nitrophenylacetylamino)-4-(4-pyridyl)pyrazole], the melting point lay in the range of 242.4 to 244.1 °C.
In turn, `Cn1nc(-c2ccc(F)cc2)c(-c2ccncc2)c1NC(=O)Cc1ccc(Cl)cc1Cl` [Example 41, 5-(2,4-Dichlorophenylacetylamino)-3-(4-fluorophenyl)-1-methyl-4-(4-pyridyl)pyrazole] showed a melting point of 224.3 to 225.4 °C.
Consider `O=C(Cc1ccc(C(F)(F)F)cc1)Nc1n[nH]c(-c2ccc(F)cc2)c1-c1ccncc1` [Example 8, 5-(4-Fluorophenyl)-4-(4-pyridyl)-3-(4-trifluoromethylphenylacetylamino)pyrazole], for which the melting point lay in the range of 282.1 to 288.4 °C.
Compound `CC(C)[C@H](NC(=O)OCc1ccccc1)C(=O)Nc1n[nH]c(-c2ccc(F)cc2)c1-c1ccncc1` [Example 85, 3-(N′-carbobenzoxy-L-valylamino)-5-(4-fluorophenyl)-4-(4-pyridyl)pyrazole] registered a melting point of 231.1 °C.
The result for `Cn1nc(-c2ccc(F)cc2)c(-c2ccncc2)c1NC(=O)Cc1ccncc1` [Example 78, 3-(4-Fluorophenyl)-1-methyl-4-(4-pyridyl)-5-(4-pyridylacetylamino)pyrazole] reads 141.3 to 143.4 °C; that for `Cn1nc(-c2ccc(F)cc2)c(-c2ccncc2)c1NC(=O)Cc1cccc(C(F)(F)F)c1` [Example 72, 3-(4-Fluorophenyl)-1-methyl-4-(4-pyridyl)-5-(3-trifluoromethylphenylacetylamino)pyrazole], 193.4 to 195.8 °C; that for `Cn1nc(-c2ccc(F)cc2)c(-c2ccncc2)c1NC(=O)Cc1cccnc1` [Example 77, 3-(4-Fluorophenyl)-1-methyl-4-(4-pyridyl)-5-(3-pyridylacetylamino)pyrazole], 220 to 220.9 °C.
The compound `CN(C(=O)OC(C)(C)C)[C@@H](Cc1ccccc1)C(=O)Nc1n[nH]c(-c2ccc(F)cc2)c1-c1ccncc1` [Example 89, 3-(N′-Carbo-t-butoxy-N′-methyl-L-Phenylalanylamino)-5-(4-fluorophenyl)-4-(4-pyridyl)pyrazole] registered a melting point of 232.4 to 233.1 °C.
For `Cn1nc(-c2ccc(F)cc2)c(-c2ccncc2)c1NC(=O)Cc1cccc(F)c1` [Example 61, 3-(4-Fluorophenyl)-5-(3-fluorophenylacetylamino)-1-methyl-4-(4-pyridyl)pyrazole], the melting point is 196.9 to 199.1 °C.
In turn, `Nc1ccccc1CC(=O)Nc1n[nH]c(-c2ccc(F)cc2)c1-c1ccncc1` [Example 93, 5-(4-fluorophenyl)-3-(2-aminophenylacetylamino)-4-(4-pyridyl)pyrazole] yielded a melting point of 196.3 to 197.1 °C.
Consider `CC(C)(C(=O)Nc1n[nH]c(-c2ccc(F)cc2)c1-c1ccncc1)c1ccccc1` [Example 33, 3-(α,α-Dimethylphenylacetylamino)-5-(4-fluorophenyl)-4-(4-pyridyl)pyrazole], for which the melting point fell in the range of 239.1 to 241.5 °C.
For the compound `Cn1nc(-c2ccc(F)cc2)c(-c2ccncc2)c1NC(=O)Cc1cc(C(F)(F)F)cc(C(F)(F)F)c1` [Example 45, 5-(3,5-Ditrifluoromethylphenylacetylamino)-3-(4-fluorophenyl)-1-methyl-4-(4-pyridyl)pyrazole], the melting point lay in the range of 228.3 to 230.6 °C.
The compound `Cn1nc(-c2ccc(Cl)c(Cl)c2)c(-c2ccncc2)c1NC(=O)Cc1ccc(F)cc1Cl` [Example 115, 5-(2-Chloro-4-fluorophenylacetylamino)-3-(3,4-dichlorophenyl)-1-methyl-4-(4-pyridyl)pyrazole] returned a melting point of 279.3 to 280.1 °C.
The compound `COc1ccc(CC(=O)Nc2c(-c3ccncc3)c(-c3ccc(F)cc3)nn2C)cc1OC` [Example 44, 5-(3,4-Dimethoxyphenylacetylamino)-3-(4-fluorophenyl)-1-methyl-4-(4-pyridyl)pyrazole] registered a melting point of 174.4 to 180.3 °C.
For `CN(C(=O)Cc1ccccc1)c1c(-c2ccncc2)c(-c2ccc(F)cc2)nn1C` [Example 120, 3-(4-Fluorophenyl)-1-methyl-5-(N-methyl-N-phenylacetylamino)-4-(4-pyridyl)pyrazole] the value was 168.5 to 171.2 °C; for `Cn1nc(-c2ccc(F)cc2)c(-c2ccncc2)c1NC(=O)Cc1ccccc1` [Example 117, 3-(4-Fluorophenyl)-1-methyl-5-phenylacetylamino-4-(4-pyridyl)pyrazole], 164.9 to 166.5 °C; for `O=C(Cc1ccccc1)Nc1n[nH]c(-c2ccccc2)c1-c1ccncc1` [Example 9, 3-Phenylacetylamino-5-phenyl-4-(4-pyridyl)pyrazole], 257.3 to 264.1 °C.
The compound `Cn1nc(-c2ccc(F)cc2)c(-c2ccncc2)c1NC(=O)Cc1ccccc1Cl` [Example 56, 5-(2-Chlorophenylacetylamino)-3-(4-fluorophenyl)-1-methyl-4-(4-pyridyl)pyrazole] registered a melting point of 215.9 to 217.8 °C.
`C[C@H](NC(=O)OCc1ccccc1)C(=O)Nc1n[nH]c(-c2ccc(F)cc2)c1-c1ccncc1` [Example 84, 3-(N′-carbobenzoxy-L-alanylamino)-5-(4-fluorophenyl)-4-(4-pyridyl)pyrazole] showed a melting point of 190 to 191.3 °C.
For `Cn1nc(-c2ccc(F)cc2)c(-c2ccncc2)c1NC(=O)Cc1cccc(Br)c1` [Example 58, 5-(3-Bromophenylacetylamino)-3-(4-fluorophenyl)-1-methyl-4-(4-pyridyl)pyrazole], the melting point is 78.5 to 80.2 °C.
`O=C(Nc1n[nH]c(-c2ccc(F)cc2)c1-c1ccncc1)C(F)(F)F` [Example 22, 5-(4-fluorophenyl)-4-(4-pyridyl)-3-trifluoroacetylaminopyrazole] showed a melting point of 260.1 to 265.2 °C.
Regarding `CCCCC(=O)Nc1n[nH]c(-c2ccc(F)cc2)c1-c1ccncc1` [Example 20, 5-(4-Fluorophenyl)-4-(4-pyridyl)-3-valerylaminopyrazole], the melting point lay in the range of 273.7 to 275.8 °C.
`O=C(Nc1n[nH]c(-c2ccc(F)cc2)c1-c1ccncc1)C(c1ccccc1)c1ccccc1` [Example 32, 3-Diphenylacetylamino-5-(4-fluorophenyl)-4-(4-pyridyl)pyrazole] showed a melting point of 266.5 to 269.2 °C.
On to `Cn1nc(-c2ccc(F)cc2)c(-c2ccncc2)c1NC(=O)Cc1ccccc1F` [Example 60, 3-(4-Fluorophenyl)-5-(2-fluorophenylacetylamino)-1-methyl-4-(4-pyridyl)pyrazole], for which the melting point fell in the range of 196.8 to 198.1 °C.
Compound `Cn1nc(-c2ccc(F)c(Cl)c2)c(-c2ccncc2)c1NC(=O)Cc1ccc(F)cc1Cl` [Example 112, 3-(3-Chloro-4-fluorophenyl)-5-(2-chloro-4-fluorophenylacetylamino)-1-methyl-4-(4-pyridyl)pyrazole] yielded a melting point of 162.8 to 163.9 °C.
Regarding `O=C(Nc1n[nH]c(-c2ccc(F)cc2)c1-c1ccncc1)c1ccccc1` [Example 13, 3-Benzoylamino-5-(4-fluorophenyl)-4-(4-pyridyl)pyrazole], the melting point was 270.5 to 276.1 °C.
